{"source": "ChEMBL document CHEMBL5252584", "about": "“Design, synthesis and anti-Chikungunya virus activity of lomerizine derivatives” (Bioorg Med Chem Lett, 2023)", "key": {"Chikungunya virus [1]": {"test_system": "Chikungunya virus", "experiment": "Antiviral activity against CHIKV infected in human Huh-7 cells assessed as inhibition of viral growth at 5 uM incubated for 12 hrs relative to control", "format": "functional"}, "Chikungunya virus [2]": {"test_system": "Chikungunya virus", "experiment": "Antiviral activity against CHIKV infected in human Huh-7 cells assessed as inhibition of viral growth at 10 uM incubated for 12 hrs relative to control", "format": "functional", "design": "scale not given: the % may be the effect or the level left"}, "Huh-7": {"test_system": "Huh-7", "experiment": "Cytotoxicity against human Huh-7 cells assessed as reduction in cell viability at 5 uM by CCK8 assay relative to control", "format": "toxicity, cell-based", "details": "huh-7, 5 µM"}, "Chikungunya virus [3]": {"test_system": "Chikungunya virus", "experiment": "Antiviral activity against CHIKV infected in human Huh-7 cells assessed as inhibition of viral growth at 2.5 uM incubated for 12 hrs relative to control", "format": "functional"}, "[4]": {"experiment": "Selectivity index, ratio of CC50 for cytotoxicity against human Huh-7 cells to IC50 for antiviral activity against CHIKV infected in human Huh-7 cells", "format": "toxicity, cell-based", "details": "read-out: Ratio CC50/IC50"}, "[5]": {"experiment": "Cytotoxicity against human Huh-7 cells assessed as reduction in cell viability by CCK8 assay relative to control", "format": "toxicity, cell-based"}, "Chikungunya virus [6]": {"test_system": "Chikungunya virus", "experiment": "Antiviral activity against CHIKV infected in human Huh-7 cells assessed as inhibition of viral growth incubated for 12 hrs", "format": "functional, organism-based", "details": "Huh-7, 12 h"}}, "data": [{"smiles": "O=C(/C=C/c1ccc(O)c(O)c1)N1CCN(C(c2ccccc2)c2ccc(Cl)cc2)CC1", "note": "(stereo not given)", "values": [{"measurement": "inhibition at 5 µM", "setting": "Chikungunya virus [1]", "value": 34.7, "unit": "%"}, {"measurement": "Activity", "setting": "Chikungunya virus [2]", "value": 74.4, "unit": "%"}, {"measurement": "cell viability", "setting": "Huh-7", "value": "> 80", "unit": "%"}, {"measurement": "inhibition at 2.5 µM", "setting": "Chikungunya virus [3]", "value": 20.2, "unit": "%"}]}, {"smiles": "O=C(/C=C/c1ccc(O)c(O)c1)N1CCN(C(c2ccc(F)cc2)c2ccc(F)cc2)CC1", "values": [{"measurement": "inhibition at 5 µM", "setting": "Chikungunya virus [1]", "value": 43.9, "unit": "%"}, {"measurement": "Activity", "setting": "Chikungunya virus [2]", "value": 96.3, "unit": "%"}, {"measurement": "cell viability", "setting": "Huh-7", "value": "> 80", "unit": "%"}, {"measurement": "inhibition at 2.5 µM", "setting": "Chikungunya virus [3]", "value": 20.1, "unit": "%"}]}, {"smiles": "O=C(/C=C/c1ccccc1F)N1CCN(C(c2ccc(F)cc2)c2ccc(F)cc2)CC1", "values": [{"measurement": "selectivity ratio", "setting": "[4]", "value": 51.9}, {"measurement": "inhibition at 5 µM", "setting": "Chikungunya virus [1]", "value": 92.8, "unit": "%"}, {"measurement": "Activity", "setting": "Chikungunya virus [2]", "value": 95.8, "unit": "%"}, {"measurement": "cell viability", "setting": "Huh-7", "value": "> 80", "unit": "%"}, {"measurement": "CC50", "setting": "[5]", "value": 31.7, "unit": "µM"}, {"measurement": "inhibition at 2.5 µM", "setting": "Chikungunya virus [3]", "value": 74.2, "unit": "%"}, {"measurement": "IC50", "setting": "Chikungunya virus [6]", "value": 0.61, "unit": "µM"}]}, {"smiles": "O=C(/C=C/c1ccc(F)cc1)N1CCN(C(c2ccc(F)cc2)c2ccc(F)cc2)CC1", "values": [{"measurement": "inhibition at 5 µM", "setting": "Chikungunya virus [1]", "value": 19.6, "unit": "%"}, {"measurement": "Activity", "setting": "Chikungunya virus [2]", "value": 55.2, "unit": "%"}, {"measurement": "cell viability", "setting": "Huh-7", "value": "> 80", "unit": "%"}, {"measurement": "inhibition at 2.5 µM", "setting": "Chikungunya virus [3]", "value": 9.7, "unit": "%"}]}, {"smiles": "O=C(/C=C/c1ccccc1F)N1CCN(C(c2ccccc2)c2ccccc2)CC1", "values": [{"measurement": "selectivity ratio", "setting": "[4]", "value": 7.6}, {"measurement": "inhibition at 5 µM", "setting": "Chikungunya virus [1]", "value": 62.1, "unit": "%"}, {"measurement": "Activity", "setting": "Chikungunya virus [2]", "value": 77.6, "unit": "%"}, {"measurement": "cell viability", "setting": "Huh-7", "value": "> 80", "unit": "%"}, {"measurement": "CC50", "setting": "[5]", "value": 34.2, "unit": "µM"}, {"measurement": "inhibition at 2.5 µM", "setting": "Chikungunya virus [3]", "value": 17.9, "unit": "%"}, {"measurement": "IC50", "setting": "Chikungunya virus [6]", "value": 4.5, "unit": "µM"}]}, {"smiles": "O=C(/C=C/c1cccc(F)c1)N1CCN(C(c2ccc(F)cc2)c2ccc(F)cc2)CC1", "values": [{"measurement": "selectivity ratio", "setting": "[4]", "value": 11.1}, {"measurement": "inhibition at 5 µM", "setting": "Chikungunya virus [1]", "value": 78.9, "unit": "%"}, {"measurement": "Activity", "setting": "Chikungunya virus [2]", "value": 85.8, "unit": "%"}, {"measurement": "cell viability", "setting": "Huh-7", "value": "> 80", "unit": "%"}, {"measurement": "CC50", "setting": "[5]", "value": 22.9, "unit": "µM"}, {"measurement": "inhibition at 2.5 µM", "setting": "Chikungunya virus [3]", "value": 59.6, "unit": "%"}, {"measurement": "IC50", "setting": "Chikungunya virus [6]", "value": 2.06, "unit": "µM"}]}, {"smiles": "Cc1ccc(/C=C/C(=O)N2CCN(C(c3ccccc3)c3ccc(Cl)cc3)CC2)cc1", "note": "(stereo not given)", "values": [{"measurement": "inhibition at 5 µM", "setting": "Chikungunya virus [1]", "value": 29.7, "unit": "%"}, {"measurement": "Activity", "setting": "Chikungunya virus [2]", "value": 56.3, "unit": "%"}, {"measurement": "cell viability", "setting": "Huh-7", "value": "> 80", "unit": "%"}, {"measurement": "inhibition at 2.5 µM", "setting": "Chikungunya virus [3]", "value": 13.4, "unit": "%"}]}, {"smiles": "Cc1ccc(/C=C/C(=O)N2CCN(C(c3ccc(F)cc3)c3ccc(F)cc3)CC2)cc1", "values": [{"measurement": "inhibition at 5 µM", "setting": "Chikungunya virus [1]", "value": 32.8, "unit": "%"}, {"measurement": "Activity", "setting": "Chikungunya virus [2]", "value": 84.3, "unit": "%"}, {"measurement": "cell viability", "setting": "Huh-7", "value": "> 80", "unit": "%"}, {"measurement": "inhibition at 2.5 µM", "setting": "Chikungunya virus [3]", "value": 21.3, "unit": "%"}]}, {"smiles": "O=C(/C=C/c1ccc2c(c1)OCO2)N1CCN(C(c2ccccc2)c2ccc(Cl)cc2)CC1", "note": "(stereo not given)", "values": [{"measurement": "selectivity ratio", "setting": "[4]", "value": 6.5}, {"measurement": "inhibition at 5 µM", "setting": "Chikungunya virus [1]", "value": 52.3, "unit": "%"}, {"measurement": "Activity", "setting": "Chikungunya virus [2]", "value": 86.5, "unit": "%"}, {"measurement": "cell viability", "setting": "Huh-7", "value": "> 80", "unit": "%"}, {"measurement": "CC50", "setting": "[5]", "value": 31.4, "unit": "µM"}, {"measurement": "inhibition at 2.5 µM", "setting": "Chikungunya virus [3]", "value": 13.2, "unit": "%"}, {"measurement": "IC50", "setting": "Chikungunya virus [6]", "value": 4.83, "unit": "µM"}]}, {"smiles": "O=C(/C=C/c1ccc2c(c1)OCO2)N1CCN(C(c2ccc(F)cc2)c2ccc(F)cc2)CC1", "values": [{"measurement": "selectivity ratio", "setting": "[4]", "value": 66}, {"measurement": "inhibition at 5 µM", "setting": "Chikungunya virus [1]", "value": 93.1, "unit": "%"}, {"measurement": "Activity", "setting": "Chikungunya virus [2]", "value": 97.4, "unit": "%"}, {"measurement": "cell viability", "setting": "Huh-7", "value": "> 80", "unit": "%"}, {"measurement": "CC50", "setting": "[5]", "value": 29.7, "unit": "µM"}, {"measurement": "inhibition at 2.5 µM", "setting": "Chikungunya virus [3]", "value": 86.9, "unit": "%"}, {"measurement": "IC50", "setting": "Chikungunya virus [6]", "value": 0.45, "unit": "µM"}]}, {"smiles": "O=C(/C=C/c1cccnc1)N1CCN(C(c2ccc(F)cc2)c2ccc(F)cc2)CC1", "values": [{"measurement": "selectivity ratio", "setting": "[4]", "value": 13}, {"measurement": "inhibition at 5 µM", "setting": "Chikungunya virus [1]", "value": 54.4, "unit": "%"}, {"measurement": "Activity", "setting": "Chikungunya virus [2]", "value": 76.5, "unit": "%"}, {"measurement": "cell viability", "setting": "Huh-7", "value": "> 80", "unit": "%"}, {"measurement": "CC50", "setting": "[5]", "value": 20.9, "unit": "µM"}, {"measurement": "inhibition at 2.5 µM", "setting": "Chikungunya virus [3]", "value": 53.8, "unit": "%"}, {"measurement": "IC50", "setting": "Chikungunya virus [6]", "value": 1.61, "unit": "µM"}]}, {"smiles": "O=C(/C=C/c1ccncc1)N1CCN(C(c2ccc(F)cc2)c2ccc(F)cc2)CC1", "values": [{"measurement": "selectivity ratio", "setting": "[4]", "value": 13.3}, {"measurement": "inhibition at 5 µM", "setting": "Chikungunya virus [1]", "value": 90.7, "unit": "%"}, {"measurement": "Activity", "setting": "Chikungunya virus [2]", "value": 95.3, "unit": "%"}, {"measurement": "cell viability", "setting": "Huh-7", "value": "> 80", "unit": "%"}, {"measurement": "CC50", "setting": "[5]", "value": 31.3, "unit": "µM"}, {"measurement": "inhibition at 2.5 µM", "setting": "Chikungunya virus [3]", "value": 58.1, "unit": "%"}, {"measurement": "IC50", "setting": "Chikungunya virus [6]", "value": 2.35, "unit": "µM"}]}, {"smiles": "O=c1cc(-c2ccccc2)oc2cc(O)c(O)c(O)c12", "note": "[BAICALEIN]", "values": [{"measurement": "selectivity ratio", "setting": "[4]", "value": "> 6"}, {"measurement": "CC50", "setting": "[5]", "value": "> 100", "unit": "µM"}, {"measurement": "IC50", "setting": "Chikungunya virus [6]", "value": 16.9, "unit": "µM"}]}, {"smiles": "COc1ccc(CN2CCN(C(c3ccc(F)cc3)c3ccc(F)cc3)CC2)c(OC)c1OC", "note": "[LOMERIZINE]", "values": [{"measurement": "selectivity ratio", "setting": "[4]", "value": "> 24.9"}, {"measurement": "CC50", "setting": "[5]", "value": "> 100", "unit": "µM"}, {"measurement": "IC50", "setting": "Chikungunya virus [6]", "value": 4.02, "unit": "µM"}]}]}
